Patent US9006235B2, “Inhibitors of human immunodeficiency virus replication” (priority 2012, dated 2015)
Read-outs that look alike come from different tables or passages of the source.

Tested on: recombinant NL-Rluc virus
Assay: Inhibition of HIV replication (NL-Rluc virus, luciferase readout in MT-2 cells)
Format: cell-based
Conditions: Human immunodeficiency virus 1, MT2, 120 h

Which results are given for `COc1ccc(CCC(=O)Nc2cc3nc(C)c([C@H](OC(C)(C)C)C(=O)O)c(-c4cc(F)c5c(c4C)CCCO5)n3n2)cc1` [Example 23, (2S)-2-tert-butoxy-2-(7-(8-fluoro-5-methylchroman-6-yl)-2-(3-(4-methoxyphenyl)propanamido)-5-methylpyrazolo[1,5-a]pyrimidin-6-yl)acetic acid]?
EC50: 170 nM; EC50 (read-out: Activity): 100 to 1000 nM

`COc1cccc(C(=O)Nc2cc3nc(C)c([C@H](OC(C)(C)C)C(=O)O)c(-c4cc(F)c5c(c4C)CCCO5)n3n2)c1` [Example 6, (2S)-2-tert-butoxy-2-(7-(8-fluoro-5-methylchroman-6-yl)-2-(3-methoxybenzamido)-5-methylpyrazolo[1,5-a]pyrimidin-6-yl)acetic acid] was tested. Which EC50 (read-out: Activity) did it give?
The EC50 was under 100 nM.

Which EC50 (read-out: Activity) does the source give for `CCOc1ccccc1C(=O)Nc1cc2nc(C)c([C@H](OC(C)(C)C)C(=O)O)c(-c3cc(F)c4c(c3C)CCCO4)n2n1` [Example 19, (2S)-2-tert-butoxy-2-(2-(2-ethoxybenzamido)-7-(8-fluoro-5-methylchroman-6-yl)-5-methylpyrazolo[1,5-a]pyrimidin-6-yl)acetic acid] here?
The EC50 was under 100 nM.

`Cc1nc2cc(NCCCC3CCCC3)nn2c(-c2cc(F)c3c(c2C)CCCO3)c1[C@H](OC(C)(C)C)C(=O)O` [Example 42, (2S)-2-(tert-butoxy)-2-(2-((3-cyclopentylpropyl)amino)-7-(8-fluoro-5-methylchroman-6-yl)-5-methylpyrazolo[1,5-a]pyrimidin-6-yl)acetic acid] was tested. Which EC50 (read-out: Activity) did it give?
Its EC50 is under 100 nM.

How did the EC50 (read-out: Activity) turn out when `Cc1nc2cc(NCCC(C)CC(C)(C)C)nn2c(-c2cc(F)c3c(c2C)CCCO3)c1[C@H](OC(C)(C)C)C(=O)O` (stereo partly drawn) [Example 47, (2S)-2-(tert-butoxy)-2-(7-(8-fluoro-5-methylchroman-6-yl)-5-methyl-2-((3,5,5-trimethylhexyl)amino)pyrazolo[1,5-a]pyrimidin-6-yl)acetic acid] was run?
The EC50 was under 100 nM.

For `Cc1nc2cc(NC(=O)c3cc(C(C)(C)C)nn3C)nn2c(-c2cc(F)c3c(c2C)CCCO3)c1[C@H](OC(C)(C)C)C(=O)O` [Example 11, (2S)-2-tert-butoxy-2-(2-(3-tert-butyl-1-methyl-1H-pyrazole-5-carboxamido)-7-(8-fluoro-5-methylchroman-6-yl)-5-methylpyrazolo[1,5-a]pyrimidin-6-yl)acetic acid], which EC50 (read-out: Activity) is on record?
The EC50 was under 100 nM.

How did the EC50 (read-out: Activity) turn out when `Cc1nc2cc(NCCC(C)(C)C)nn2c(-c2cc(F)c3c(c2C)CCCO3)c1[C@H](OC(C)(C)C)C(=O)O` [Example 45, (2S)-2-(tert-butoxy)-2-(2-((3,3-dimethylbutyl)amino)-7-(8-fluoro-5-methylchroman-6-yl)-5-methylpyrazolo[1,5-a]pyrimidin-6-yl)acetic acid] was run?
Its EC50 is under 100 nM.

Which results are given for `Cc1nc2cc(N(CCC(C)(C)C)CCC(C)(C)C)nn2c(-c2cc(F)c3c(c2C)CCCO3)c1[C@H](OC(C)(C)C)C(=O)O` [Example 46, (2S)-2-(2-(bis(3,3-dimethylbutyl)amino)-7-(8-fluoro-5-methylchroman-6-yl)-5-methylpyrazolo[1,5-a]pyrimidin-6-yl)-2-(tert-butoxy)acetic acid]?
EC50: 2570 nM; EC50 (read-out: Activity): > 1000 nM

For `Cc1nc2cc(N(C)CCCC3CCCC3)nn2c(-c2cc(F)c3c(c2C)CCCO3)c1[C@H](OC(C)(C)C)C(=O)O` [Example 52, (2S)-2-(tert-butoxy)-2-(2-((3-cyclopentylpropyl)(methyl)amino)-7-(8-fluoro-5-methylchroman-6-yl)-5-methylpyrazolo[1,5-a]pyrimidin-6-yl)acetic acid], which EC50 (read-out: Activity) is on record?
Its EC50 is under 100 nM.

What does the source list for `Cc1nc2cc(N)nn2c(-c2cc(F)c3c(c2C)CCCO3)c1[C@H](OC(C)(C)C)C(=O)O` [Example 1, (2S)-2-(2-amino-7-(8-fluoro-5-methylchroman-6-yl)-5-methylpyrazolo[1,5-a]pyrimidin-6-yl)-2-tert-butoxyacetic acid]?
EC50: 2480 nM; EC50 (read-out: Activity): > 1000 nM

With `Cc1nc2cc(NC(=O)CC3CCCC3)nn2c(-c2cc(F)c3c(c2C)CCCO3)c1[C@H](OC(C)(C)C)C(=O)O` [Example 21, (2S)-2-tert-butoxy-2-(2-(2-cyclopentylacetamido)-7-(8-fluoro-5-methylchroman-6-yl)-5-methylpyrazolo[1,5-a]pyrimidin-6-yl)acetic acid] as the molecule, how does the EC50 (read-out: Activity) read?
The EC50 was under 100 nM.

`CCOc1cccc(C(=O)Nc2cc3nc(C)c([C@H](OC(C)(C)C)C(=O)O)c(-c4cc(F)c5c(c4C)CCCO5)n3n2)c1` [Example 14, (2S)-2-tert-butoxy-2-(2-(3-ethoxybenzamido)-7-(8-fluoro-5-methylchroman-6-yl)-5-methylpyrazolo[1,5-a]pyrimidin-6-yl)acetic acid] was tested. Which EC50 (read-out: Activity) did it give?
The EC50 was under 100 nM.

For `Cc1nc2cc(NC(=O)COC3C[C@@H](C)CC[C@@H]3C(C)C)nn2c(-c2cc(F)c3c(c2C)CCCO3)c1[C@H](OC(C)(C)C)C(=O)O` (stereo partly drawn) [Example 13, (2S)-2-tert-butoxy-2-(7-(8-fluoro-5-methylchroman-6-yl)-2-(2-((2R,5S)-2-isopropyl-5-methylcyclohexyloxy)acetamido)-5-methylpyrazolo[1,5-a]pyrimidin-6-yl)acetic acid], which EC50 (read-out: Activity) is on record?
Its EC50 is under 100 nM.

For `Cc1nc2cc(NC(=O)c3cccc(F)c3)nn2c(-c2cc(F)c3c(c2C)CCCO3)c1[C@H](OC(C)(C)C)C(=O)O` [Example 5, (2S)-2-tert-butoxy-2-(7-(8-fluoro-5-methylchroman-6-yl)-2-(3-fluorobenzamido)-5-methylpyrazolo[1,5-a]pyrimidin-6-yl)acetic acid], which EC50 (read-out: Activity) is on record?
The EC50 was under 100 nM.

How did the EC50 (read-out: Activity) turn out when `Cc1nc2cc(NC(=O)C(Oc3ccccc3)C(C)C)nn2c(-c2cc(F)c3c(c2C)CCCO3)c1[C@H](OC(C)(C)C)C(=O)O` (mixture of isomers) [Example 24, (2S)-2-tert-butoxy-2-(7-(8-fluoro-5-methylchroman-6-yl)-5-methyl-2-(3-methyl-2-phenoxybutanamido)pyrazolo[1,5-a]pyrimidin-6-yl)acetic acid] was run?
Its EC50 is under 100 nM.

Which EC50 (read-out: Activity) does the source give for `Cc1nc2cc(NCCC(C)C)nn2c(-c2cc(F)c3c(c2C)CCCO3)c1[C@H](OC(C)(C)C)C(=O)O` [Example 43, (2S)-2-(tert-butoxy)-2-(7-(8-fluoro-5-methylchroman-6-yl)-2-(isopentylamino)-5-methylpyrazolo[1,5-a]pyrimidin-6-yl)acetic acid] here?
The EC50 was under 100 nM.

`Cc1nc2cc(NCc3ccccc3)nn2c(-c2cc(F)c3c(c2C)CCCO3)c1[C@H](OC(C)(C)C)C(=O)O` [Example 38, (2S)-2-(2-(benzylamino)-7-(8-fluoro-5-methylchroman-6-yl)-5-methylpyrazolo[1,5-a]pyrimidin-6-yl)-2-(tert-butoxy)acetic acid] was tested. Which EC50 did it give?
Its EC50 is 300 nM.

What about the EC50 (read-out: Activity) of the same molecule?
Its EC50 is 100 to 1000 nM.

For `Cc1nc2cc(NC(=O)C(=O)c3c[nH]c4ccccc34)nn2c(-c2cc(F)c3c(c2C)CCCO3)c1[C@H](OC(C)(C)C)C(=O)O` [Example 31, (2S)-2-(2-(2-(1H-indol-3-yl)-2-oxoacetamido)-7-(8-fluoro-5-methylchroman-6-yl)-5-methylpyrazolo[1,5-a]pyrimidin-6-yl)-2-tert-butoxyacetic acid], which EC50 (read-out: Activity) is on record?
The EC50 was under 100 nM.

`Cc1nc2cc(NC(=O)CCC3CCCCC3)nn2c(-c2cc(F)c3c(c2C)CCCO3)c1[C@H](OC(C)(C)C)C(=O)O` [Example 28, (2S)-2-tert-butoxy-2-(2-(3-cyclohexylpropanamido)-7-(8-fluoro-5-methylchroman-6-yl)-5-methylpyrazolo[1,5-a]pyrimidin-6-yl)acetic acid] was tested. Which EC50 (read-out: Activity) did it give?
The EC50 was under 100 nM.

`CCCCOC(=O)Nc1cc2nc(C)c([C@H](OC(C)(C)C)C(=O)O)c(-c3cc(F)c4c(c3C)CCCO4)n2n1` [Example 34, (2S)-2-(tert-butoxy)-2-(2-((butoxycarbonyl)amino)-7-(8-fluoro-5-methylchroman-6-yl)-5-methylpyrazolo[1,5-a]pyrimidin-6-yl)acetic acid] was tested. Which EC50 (read-out: Activity) did it give?
Its EC50 is under 100 nM.

How did the EC50 (read-out: Activity) turn out when `CCCCCC(=O)Nc1cc2nc(C)c([C@H](OC(C)(C)C)C(=O)O)c(-c3cc(F)c4c(c3C)CCCO4)n2n1` [Example 17, (2S)-2-tert-butoxy-2-(7-(8-fluoro-5-methylchroman-6-yl)-2-hexanamido-5-methylpyrazolo[1,5-a]pyrimidin-6-yl)acetic acid] was run?
Its EC50 is under 100 nM.

How did the EC50 turn out when `Cc1nc2cc(NCCCc3ccccc3)nn2c(-c2cc(F)c3c(c2C)CCCO3)c1[C@H](OC(C)(C)C)C(=O)O` [Example 41, (2S)-2-(tert-butoxy)-2-(7-(8-fluoro-5-methylchroman-6-yl)-5-methyl-2-((3-phenylpropyl)amino)pyrazolo[1,5-a]pyrimidin-6-yl)acetic acid] was run?
The EC50 was 50 nM.

What about the EC50 (read-out: Activity) of the same molecule?
The EC50 was under 100 nM.

With `Cc1nc2cc(NC(=O)COCc3ccccc3)nn2c(-c2cc(F)c3c(c2C)CCCO3)c1[C@H](OC(C)(C)C)C(=O)O` [Example 9, (2S)-2-(2-(2-(benzyloxy)acetamido)-7-(8-fluoro-5-methylchroman-6-yl)-5-methylpyrazolo[1,5-a]pyrimidin-6-yl)-2-tert-butoxyacetic acid] as the molecule, how does the EC50 (read-out: Activity) read?
Its EC50 is under 100 nM.

How did the EC50 (read-out: Activity) turn out when `COc1cc(C(=O)Nc2cc3nc(C)c([C@H](OC(C)(C)C)C(=O)O)c(-c4cc(F)c5c(c4C)CCCO5)n3n2)cc(OC)c1OC` [Example 29, (2S)-2-tert-butoxy-2-(7-(8-fluoro-5-methylchroman-6-yl)-5-methyl-2-(3,4,5-trimethoxybenzamido)pyrazolo[1,5-a]pyrimidin-6-yl)acetic acid] was run?
Its EC50 is 100 to 1000 nM.

`Cc1nc2cc(NC3CCCC3)nn2c(-c2cc(F)c3c(c2C)CCCO3)c1[C@H](OC(C)(C)C)C(=O)O` [Example 49, (2S)-2-(tert-butoxy)-2-(2-(cyclopentylamino)-7-(8-fluoro-5-methylchroman-6-yl)-5-methylpyrazolo[1,5-a]pyrimidin-6-yl)acetic acid] was tested. Which EC50 (read-out: Activity) did it give?
The EC50 was 100 to 1000 nM.

Which EC50 does the source give for `Cc1nc2cc(N3CCCCC3)nn2c(-c2cc(F)c3c(c2C)CCCO3)c1[C@H](OC(C)(C)C)C(=O)O` [Example 50, (2S)-2-(tert-butoxy)-2-(7-(8-fluoro-5-methylchroman-6-yl)-5-methyl-2-(piperidin-1-yl)pyrazolo[1,5-a]pyrimidin-6-yl)acetic acid] here?
The EC50 was 60 nM.

What about the EC50 (read-out: Activity) of the same molecule?
Its EC50 is under 100 nM.

How did the EC50 (read-out: Activity) turn out when `Cc1nc2cc(NC(=O)Cc3ccc(Cl)c(Cl)c3)nn2c(-c2cc(F)c3c(c2C)CCCO3)c1[C@H](OC(C)(C)C)C(=O)O` [Example 26, (2S)-2-tert-butoxy-2-(2-(2-(3,4-dichlorophenyl)acetamido)-7-(8-fluoro-5-methylchroman-6-yl)-5-methylpyrazolo[1,5-a]pyrimidin-6-yl)acetic acid] was run?
Its EC50 is under 100 nM.
